One assay has as its target AM2 S31 (wild-type serine at position 31 in the M2 protein), influenza virus A/Udorn/72 (Influenza A virus, UniProt P0DOF5). The assay can be described thus: cell-based. The note with it: 100 uM; Xenopus oocytes; activity range class.
Chain of AM2 S31 (wild-type serine at position 31 in the M2 protein), influenza virus A/Udorn/72 (P0DOF5 whole entry, looked up): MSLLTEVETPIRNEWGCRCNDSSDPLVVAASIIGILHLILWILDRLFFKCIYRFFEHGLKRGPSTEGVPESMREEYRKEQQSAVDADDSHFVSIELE
As for `F[B-](F)(F)c1ccc(CNC23CC4CC(CC(C4)C2)C3)cc1.[K+]` [Example 2a], the “S31 OOcyte Inhibition at 100 uM (%)” value is given as “A ((A)=31-95%)”.

Still in this assay, the particulars now being: 100 uM; Xenopus oocytes; activity range class; read-out: S31 OOcyte Inhibition at 100 uM (%).
Broadly, the inhibition is how much of the control response was suppressed. As to `Cc1cc(CNC23CC4CC(CC(C4)C2)C3)sc1Br` [Example 77a, N-((5-bromo-4-methylthiophen-2-yl)methyl)adamantan-1-amine], the inhibition at 100 µM was in the range of 31 to 95%.
Same read-out and setting: for `c1c(CNC23CC4CC(CC(C4)C2)C3)noc1C1CC1` [Example 107a, N-((5-cyclopropylisoxazol-3-yl)methyl)adamantan-1-amine] the value was 0 to 30%; for `c1csc(-c2csc(CNC34CC5CC(CC(C5)C3)C4)c2)c1` [Example 140a, Adamantan-1-yl-[2,3′]bithiophenyl-5′-ylmethyl-amine], 0 to 30%.
Still for that read-out and setting: with `Cc1ccc(-c2nc(CNC34CC5CC(CC(C5)C3)C4)no2)cc1` [Example 128a, N-((5-(p-tolyl)-1,2,4-oxadiazol-3-yl)methyl)adamantan-1-amine] the figure was 0 to 30%; with `CC(=O)c1ccc(CNC23CC4CC(CC(C4)C2)C3)cc1` [Example 44a], 0 to 30%.
Same read-out and setting: for `c1cc2cc(CNC34CC5CC(CC(C5)C3)C4)ccc2s1` [Example 41a, N-(benzo[b]thiophen-5-ylmethyl)adamantan-1-amine] the value was 31 to 95%.
Regarding `c1coc(-c2cc(CNC34CC5CC(CC(C5)C3)C4)no2)c1` [Example 153a, N-((5-(furan-2-yl)isoxazol-3-yl)methyl)adamantan-1-amine], the inhibition at 100 µM was in the range of 0 to 30%.
As to `COc1ccc(CNC23CC4CC(CC(C4)C2)C3)s1` [Example 75a, N-((5-methoxythiophen-2-yl)methyl)adamantan-1-amine], the inhibition at 100 µM lay in the range of 31 to 95%.
The same measure, in the same setting: for `Clc1cccc2cc(CNC34CC5CC(CC(C5)C3)C4)sc12` [Example 183a, Adamantan-1-yl-(7-chloro-benzo[b]thiophen-2-ylmethyl)-amine] the value was 31 to 95%.
Still for that read-out and setting: with `c1csc(-c2ccc(CNC34CC5CC(CC(C5)C3)C4)cn2)c1` [Example 58a, N-((6-(thiophen-2-yl)pyridin-3-yl)methyl)adamantan-1-amine] the figure was 31 to 95%; with `OC12CC3CC(C1)CC(NCc1cccs1)(C3)C2` [Example 187a, 3-[(Thiophen-2-ylmethyl)-amino]adamantan-1-ol], 0 to 30%; with `c1ccc(-c2ncc(CNC34CC5CC(CC(C5)C3)C4)cn2)cc1` [Example 63a, N-((2-phenylpyrimidin-5-yl)methyl)adamantan-1-amine], 0 to 30%.
The same measure, in the same setting: for `c1ccc(-c2cc(CNC34CC5CC(CC(C5)C3)C4)no2)cc1` [Example 116a, N-((5-phenylisoxazol-3-yl)methyl)adamantan-1-amine] the value was 0 to 30%.
`Brc1cnc(CNC23CC4CC(CC(C4)C2)C3)s1` [Example 86a, Adamantan-1-yl-(5-bromo-thiazol-2-ylmethyl)-amine]: the inhibition at 100 µM lay in the range of 0 to 30%.
As for `c1csc(-c2ncc(CNC34CC5CC(CC(C5)C3)C4)cn2)c1` [Example 61a, N-((2-(thiophen-2-yl)pyrimidin-5-yl)methyl)adamantan-1-amine], the inhibition at 100 µM lay in the range of 0 to 30%.
Same read-out and setting: with `Clc1ccc(-c2cc(CNC34CC5CC(CC(C5)C3)C4)no2)cc1` [Example 119a, N-((5-(4-chlorophenyl)isoxazol-3-yl)methyl)adamantan-1-amine] the figure was 0 to 30%.

The same assay, now with this note: Table 1; 100 uM; Xenopus oocytes, pH 5.5, -20 mV; read-out: S31 OOcyte Inhibition at 100 uM (%).
Regarding `COc1ccc(F)c(CNC23CC4CC(CC(C4)C2)C3)c1` [Example 63, Adamantan-1-yl-(2-fluoro-5-methoxy-benzyl)-amine], the inhibition at 100 µM is 31 to 95%.
The same measure, in the same setting: with `Oc1cccc(CNC23CC4CC(CC(C4)C2)C3)c1` [Example 31, 3-(Adamantan-1-ylaminomethyl)-phenol] the figure was 31 to 95%.
As to `c1ncc(CCNCC23CC4CC(CC(C4)C2)C3)[nH]1` [Example 1, Adamantan-1-ylmethyl-[2-(3H-imidazol-4-yl)-ethyl]-amine], the inhibition at 100 µM was in the range of 0 to 30%.
Still for that read-out and setting: for `O=[N+]([O-])c1ccc(CNC23CC4CC(CC(C4)C2)C3)cc1` [Example 19, Adamantan-1-yl-(4-nitro-benzyl)-amine] the value was 31 to 95%.
On to `c1cnc2sc(CNC34CC5CC(CC(C5)C3)C4)cc2c1` [Example 90, Adamantan-1-yl-thieno[2,3-b]pyridin-2-ylmethyl-amine], for which the inhibition at 100 µM fell in the range of 0 to 30%.
Same read-out and setting: for `c1cc2cc(CNC34CC5CC(CC(C5)C3)C4)[nH]c2s1` [Example 82, Adamantan-1-yl-(6H-thieno[2,3-b]pyrrol-5-ylmethyl)-amine] the value was 31 to 95%; for `C[S+]([O-])c1ccc(CNC23CC4CC(CC(C4)C2)C3)cc1` (stereo not shown) [Example 24, Adamantan-1-yl-(4-methanesulfinyl-benzyl)-amine], 0 to 30%.
On the same count and under the same terms, for `c1cc2c(cc1CNC13CC4CC(CC(C4)C1)C3)OCO2` [Example 49] the value was 31 to 95%; for `c1coc(COc2ccc(CNC34CC5CC(CC(C5)C3)C4)cc2)c1` [Example 21, Adamantan-1-yl-[4-(furan-2-ylmethoxy)-benzyl]-amine], 31 to 95%; for `OC1CCN(C2C3CC4CC(C3)CC2C4)CC1` (stereo not shown) [Example 104, 1-Adamantan-2-yl-piperidin-4-ol], 0 to 30%.
Still for that read-out and setting: with `c1ccc2oc(CNC34CC5CC(CC(C5)C3)C4)cc2c1` [Example 89, Adamantan-1-yl-benzofuran-2-ylmethyl-amine] the figure was 0 to 30%; with `c1nc2ccc(CNC34CC5CC(CC(C5)C3)C4)cc2[nH]1` [Example 94, Adamantan-1-yl-(3H-benzoimidazol-5-ylmethyl)-amine], 0 to 30%.

Still in this assay, the particulars now being: Table 3; 100 uM; Xenopus oocytes, pH 5.5, -20 mV; read-out: S31 OOcyte Inhibition at 100 uM (%).
With `Cn1cc(CNC23CC4CC(CC(C4)C2)C3)nn1` [Example 18b, N-((1-methyl-1H-1,2,3-triazol-4-yl)methyl)adamantan-1-amine], the inhibition at 100 µM fell in the range of 0 to 30%.
With `CCCc1cc(CNC23CC4CC(CC(C4)C2)C3)no1` [Example 26b, N-((5-propylisoxazol-3-yl)methyl)adamantan-1-amine], the inhibition at 100 µM lay in the range of 0 to 30%.
On the same count and under the same terms, with `CC(C)c1cc(CNC23CC4CC(CC(O)(C4)C2)C3)no1` [Example 85b, (1s,3r,5R,7S)-3-(((5-isopropylisoxazol-3-yl)methyl)amino)adamantan-1-61] the figure was 0 to 30%; with `COc1ncc(CNC23CC4CC(CC(C4)C2)C3)cn1` [Example 55b, N-((2-methoxypyrimidin-5-yl)methyl)adamantan-1-amine], 0 to 30%.
Same read-out and setting: for `Clc1ccc(CNC23CC4CC(CC(C4)C2)C3)nn1` [Example 70b, Adamantan-1-yl-(6-chloro-pyridazin-3-ylmethyl)-amine] the value was 31 to 95%; for `COc1cccc(-c2cc(CNC34CC5CC(CC(C5)C3)C4)no2)c1` [Example 39b, N-((5-(3-methoxyphenyl)isoxazol-3-yl)methyl)adamantan-1-amine], 0 to 30%; for `CC(C)c1cc(CNC23CC4CC(CC(C4)C2)C3)no1` [Example 27b, N-((5-isopropylisoxazol-3-yl)methyl)adamantan-1-amine], 0 to 30%.
On the same count and under the same terms, for `COc1ccc(-c2cc(CNC34CC5CC(CC(C5)C3)C4)no2)c(OC)c1` [Example 41b, N-((5-(2,4-dimethoxyphenyl)isoxazol-3-yl)methyl)adamantan-1-amine] the value was 0 to 30%.

The record behind these values is patent publication US9884832B2 (priority 2011, dated 2018).
